Measured values taken from patent US11845760B2, “PRMT5 inhibitors” (AMGEN INC., priority 2020, dated 2023).
Like-named read-outs stand apart in the source and are kept apart here.

How the values were obtained:
HCT116 WT cells = experiment: HCT116 WT cell line proliferation (CellTiter-Glo cell viability, 6 days); type: cell-based; conditions: HCT116 WT (parent) cells, 6 days of treatment, CellTiter-Glo cell viability, read-out: HCT-116 WT IC50
How it was run: (§1)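 Isogenic HCT116 pair (parent and MTAP double-allele knockout) in RPMI 1640 + 10% FBS, exposed 6 days to compound: 8–9-point 1:3 dilutions from 1 or 10 μM top, or 22-point 1:2 dilutions from 10 or 50 μM top. CellTiter-Glo luminescence; IC50 from sigmoidal fit (Hill −1) or 4-parameter logistic.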

HCT116 MTAP null cells = experiment: HCT116 MTAP null cell line proliferation (CellTiter-Glo cell viability, 6 days); type: cell-based; conditions: HCT116 MTAP null cells, 6 days of treatment, CellTiter-Glo cell viability, read-out: HCT-116 MTAP null IC50
How it was run: as §1

IC50 (HCT116 WT cells; Homo sapiens, HCT-116, 144 h) [nM]	IC50 (HCT116 MTAP null cells; HCT116-MTAP null, 144 h) [nM]	IC50 (HCT116 WT cells) [nM]	IC50 (HCT116 MTAP null cells) [nM]	Compound
21500	711			Cn1ncc2c3cc(C(=O)N4CCOCC4c4ccc(OC(F)(F)F)cc4)ccc3nc(N)c21 (racemic) [Example 498, (4-amino-3-methyl-3H-pyrazolo[3,4-c]quinolin-8-yl)((3R)-3-(4-(trifluoromethoxy)phenyl)-4-morpholinyl)methanone and (4-amino-3-methyl-3H-pyrazolo[3,4-c]quinolin-8-yl)((3S)-3-(4-(trifluoromethoxy)phenyl)-4-morpholinyl)methanone]
1210	29			Nc1nc2cc(F)c(C(=O)N3CCOC[C@@H]3c3ccc(C(F)(F)F)cc3)cc2c2c1COC2 [Example 528, (4-amino-7-fluoro-1,3-dihydrofuro[3,4-c]quinolin-8-yl)((3S)-3-(4-(trifluoromethyl)phenyl)-4-morpholinyl)methanone]
2920	82			C[C@H]1CN(C(=O)c2ccc3nc(N)c4c(c3c2)COC4)[C@H](c2ccc(OC(F)(F)F)cc2)CO1 (single isomer, unassigned) [Example 586]
778	24			C[C@H]1OCc2c1c(N)nc1cnc(C(=O)N3CCOC[C@@H]3c3ccc(C(F)(F)C(F)(F)F)cc3)cc21 (single isomer, unassigned) [Example 454]
8900	145			Nc1nc2ccc(C(=O)N3CCOC[C@@H]3c3ccc(OC(F)(F)F)nc3)cc2c2c1COC2 (single isomer, unassigned) [Example 592]
		6170	117	Nc1nc2cc(F)c(C(=O)N3CCOCC3c3ccc(F)c(C(F)(F)F)c3)cc2c2c1COC2 (racemic) [Example 342, (4-amino-7-fluoro-1,3-dihydrofuro[3,4-c]quinolin-8-yl)((3R)-3-(4-fluoro-3-(trifluoromethyl)phenyl)-4-morpholinyl)methanone and (4-amino-7-fluoro-1,3-dihydrofuro[3,4-c]quinolin-8-yl)((3S)-3-(4-fluoro-3-(trifluoromethyl)phenyl)-4-morpholinyl)methanone]
602	14			Cn1ncc2c(N)nc3cc(Cl)c(C(=O)N4CC(c5ccc(C(F)(F)F)cc5)C4)cc3c21 [Example 440, (4-amino-7-chloro-1-methyl-1H-pyrazolo[4,3-c]quinolin-8-yl)(3-(4-(trifluoromethyl)phenyl)-1-azetidinyl)methanone]
6610	603			Nc1nc2ccc(C(=O)N3CCOCC3c3ccc(CC(F)(F)F)cc3)cc2c2c1COC2 (racemic) [Example 508, (4-amino-1,3-dihydrofuro[3,4-c]quinolin-8-yl)((3R)-3-(4-(2,2,2-trifluoroethyl)phenyl)-4-morpholinyl)methanone and (4-amino-1,3-dihydrofuro[3,4-c]quinolin-8-yl)((3S)-3-(4-(2,2,2-trifluoroethyl)phenyl)-4-morpholinyl)methanone]
40300	2180			C[C@@H]1OCc2c1c(N)nc1cnc(C(=O)N3CCOC[C@@H]3c3ccc(C(F)(F)F)cc3)cc21 (single isomer, unassigned) [Example 453]
2700	181			Cc1n[nH]c2c1c(N)nc1ccc(C(=O)N3CCOC[C@@H]3c3ccc(C(F)(F)F)cc3)cc12 [Example 405, (4-amino-3-methyl-1H-pyrazolo[4,3-d]quinolin-8-yl)((3S)-3-(4-(trifluoromethyl)phenyl)-4-morpholinyl)methanone]
3580	39			Cn1ncc2c(N)nc3cc(F)c(C(=O)N4CCOC[C@@H]4c4ccc(OC(F)F)nn4)cc3c21 [Example 556, (4-amino-7-fluoro-1-methyl-1H-pyrazolo[4,3-c]quinolin-8-yl)((3S)-3-(6-(difluoromethoxy)-3-pyridazinyl)-4-morpholinyl)methanone]
630	17			Cn1ncc2c(N)nc3cc(F)c(C(=O)N4CCOC[C@@H]4c4ccc(C(F)(F)F)cn4)cc3c21 [Example 558, (4-amino-7-fluoro-1-methyl-1H-pyrazolo[4,3-c]quinolin-8-yl)((3S)-3-(5-(trifluoromethyl)-2-pyridinyl)-4-morpholinyl)methanone]
240	14			Cn1ncc2c(N)nc3cc(F)c(C(=O)N4C[C@@H](CO)[C@H](c5ccc(C(F)(F)F)cc5F)C4)cc3c21 [Example 446, (4-amino-7-fluoro-1-methyl-1H-pyrazolo[4,3-c]quinolin-8-yl)((3R,4S)-3-(2-fluoro-4-(trifluoromethyl)phenyl)-4-(hydroxymethyl)-1-pyrrolidinyl)methanone]
8760	221			Nc1nc2ccc(C(=O)N3CCOC[C@@H]3c3ccc(C(F)(F)F)cn3)cc2c2c1COC2 (single isomer, unassigned) [Example 570]
> 10000	> 1000			Nc1nc2ccc(C(=O)N3CCOC[C@H]3c3ccc(C(F)(F)F)cn3)cc2c2c1COC2 (single isomer, unassigned) [Example 571]
> 10000	> 1000			N#Cc1ccc([C@@H]2COCCN2C(=O)c2ccc3nc(N)c4c(c3c2)COC4)nc1 (single isomer, unassigned) [Example 576]
3460	241			Nc1nc2cnc(C(=O)N3CCOC[C@@H]3c3cc(C(F)(F)F)cs3)cc2c2c1COC2 (single isomer, unassigned) [Example 615]
		4750	106	C[C@@H]1COC[C@H](c2ccc(OC(F)F)nn2)N1C(=O)c1ccc2nc(N)c3c(c2c1)COC3 (racemic) [Example 315, (4-amino-1,3-dihydrofuro[3,4-c]quinolin-8-yl)((3R,5S)-3-(6-(difluoromethoxy)-3-pyridazinyl)-5-methyl-4-morpholinyl)methanone and (4-amino-1,3-dihydrofuro[3,4-c]quinolin-8-yl)((3S,5R)-3-(6-(difluoromethoxy)-3-pyridazinyl)-5-methyl-4-morpholinyl)methanone]
1270	27			COc1ccc([C@H]2COC[C@@H](C)N2C(=O)c2cc3c(cc2F)nc(N)c2c3cnn2C)nn1 [Example 539, (4-amino-7-fluoro-3-methyl-3H-pyrazolo[3,4-c]quinolin-8-yl)((3S,5R)-3-(6-methoxy-3-pyridazinyl)-5-methyl-4-morpholinyl)methanone]
8570	343			CC(=O)N1CCN(C(=O)c2cc3c4c(c(N)nc3cn2)COC4)[C@@H](c2ccc(C(F)(F)F)cc2)C1 [Example 624, (S)-1-(4-(4-Amino-1,3-dihydrofuro[3,4-c][1,7]naphthyridine-8-carbonyl)-3-(4-(trifluoromethyl)phenyl)piperazin-1-yl)ethan-1-one]
		22700	616	(4-amino-1-methyl-1H- pyrazolo[4,3- c][1,7]naphthyridin-8- yl)((3R)-3-(4- (trifluoromethyl)benzyl)-1- pyrrolidinyl)methanone and (4-amino-1-methyl-1H- pyrazolo[4,3- c][1,7]naphthyridin-8- yl)((3S)-3-(4- (trifluoromethyl)benzyl)-1- pyrrolidinyl)methanone [Example 432]
